Values of other authors, collected in PMC7948455, “Novel drug discovery platform for spinocerebellar ataxia, using fluorescence technology targeting β-III-spectrin” (The Journal of Biological Chemistry, 2020).

Tested on: mammalian cells
Settings: 10 μM ref 36, 37, 38; cited from earlier work

For `CCCCCCCC/C=C\CCCCCCCC(=O)NCc1ccc(O)c(OC)c1` [olvanil], the “Reduction of cell viability” value is listed as less than 10%.
